Results reported in US7022725B2, “Isoxazole derivatives” (Takeda Pharmaceutical Company Limited, priority 2000, dated 2006).

| melting point [°C] | SMILES |
| --- | --- |
| 134 to 135 | CCOP(=O)(Cc1ccc(NC(=O)CCc2cnoc2-c2ccc(F)cc2)cc1)OCC |
| 80 to 82 | CCOP(=O)(O)Cc1ccc(NC(=O)CCc2cnoc2-c2ccccc2)cc1 |
| 116 to 118 | O=C(O)CCc1cnoc1-c1ccc(OC(F)(F)F)cc1 [Example 1, 3-[5-(4-trifluoromethoxyphenyl)-4-isoxazolyl]propionic acid] |
| 149 to 150 | O=C(O)CCc1conc1-c1ccc(Cl)cc1 [Example 5, 3-[3-(4-chlorophenyl)-4-isoxazolyl]propionic acid] |
| 177 to 180 | O=C(O)CCc1cnoc1-c1ccc(Cl)c(Br)c1 [Example 6, 3-[5-(3-bromo-4-chlorophenyl)-4-isoxazolyl]propionic acid] |
| 90 to 91 | O=C(O)CCc1cnoc1-c1ccccc1 [Example 7, 3-(5-phenyl-4-isoxazolyl)propionic acid] |
| 171 to 172 | O=C(O)CCc1cnoc1-c1ccc(C(F)(F)F)cc1 [Example 10, 3-[5-(4-trifluoromethylphenyl)-4-isoxazolyl]propionic acid] |
| 126 to 127 | O=C(O)CCc1cnoc1-c1ccc(F)cc1 [Example 11, 3-[5-(4-fluorophenyl)-4-isoxazolyl]propionic acid] |
| 121 to 122 | Cc1ccc(-c2oncc2CCC(=O)O)cc1 [Example 12, 3-[5-(4-methylphenyl)-4-isoxazolyl]propionic acid] |
| 101 to 102 | COc1ccc(-c2oncc2CCC(=O)O)cc1 [Example 13, 3-[5-(4-methoxyphenyl)-4-isoxazolyl]propionic acid] |
| 158 to 159 | NC(=O)CCc1conc1-c1ccc(Cl)cc1 [Example 18, 3-[3-(4-chlorophenyl)-4-isoxazolyl]propionamide] |
| 151 to 152 | NC(=O)CCc1cnoc1-c1ccccc1 [Example 22, 3-(5-phenyl-4-isoxazolyl)propionamide] |
| 75 to 76 | CCNC(=O)CCc1cnoc1-c1ccccc1 [Example 23, N-ethyl-3-(5-phenyl-4-isoxazolyl)propionamide] |
| 197 to 199 | O=C(O)/C=C/c1cnoc1-c1ccccc1 [Example 24, (E)-3-(5-phenyl-4-isoxazolyl)propenoic acid] |
| 194 to 196 | NC(=O)/C=C/c1cnoc1-c1ccccc1 [Example 25, (E)-3-(5-phenyl-4-isoxazolyl)propenamide] |
| 156 to 157 | CCNC(=O)/C=C/c1cnoc1-c1ccccc1 [Example 27, (E)-N-ethyl-3-(5-phenyl-4-isoxazolyl)propenamide] |
| 149 to 151 | Cc1noc(-c2ccccc2)c1CCC(N)=O [Example 28, 3-(3-methyl-5-phenyl-4-isoxazolyl)propionamide] |
| 169 to 170 | O=C(O)CCc1conc1-c1ccc(-c2ccccc2)cc1 [Example 57, 3-[3-(4-phenylphenyl)-4-isoxazolyl]propionic acid] |
| 125 to 126 | O=C(O)CCc1cnoc1-c1ccc(F)cc1F [Example 59, 3-[5-(2,4-difluorophenyl)-4-isoxazolyl]propionic acid] |
| 68 to 69 | COC(=O)CCc1cnoc1-c1ccc(C(F)(F)F)cc1 [Example 60, methyl 3-[5-(4-trifluoromethylphenyl)-4-isoxazolyl]propionate] |
| 40 to 41 | COC(=O)CCc1cnoc1-c1ccc(F)cc1F [Example 61, methyl 3-[5-(2,4-difluorophenyl)-4-isoxazolyl]propionate] |
| 85 to 86 | OCCCc1cnoc1-c1ccc(C(F)(F)F)cc1 [Example 62, 3-[5-(4-trifluoromethylphenyl)-4-isoxazolyl]propan-1-ol] |
| 34 to 35 | COC(=O)CCc1cnoc1-c1ccc(Cl)s1 [Example 65, methyl 3-[5-(5-chloro-2-thienyl)-4-isoxazolyl]propionate] |
| 106 to 107 | O=C(O)CCc1cnoc1-c1ccc(Cl)cc1Cl [Example 69, 3-[5-(2,4-dichlorophenyl)-4-isoxazolyl]propionic acid] |
| 143 to 144 | O=C(O)CCc1cnoc1-c1cc(Cl)cc(Cl)c1 [Example 74, 3-[5-(3,5-dichlorophenyl)-4-isoxazolyl]propionic acid] |
| 204 to 205 | O=C(O)CCc1cnoc1-c1ccc([N+](=O)[O-])cc1 [Example 80, 3-[5-(4-nitrophenyl)-4-isoxazolyl]propionic acid] |
| 110 to 111 | O=C(O)CCc1cnoc1-c1cccc(Cl)c1 [Example 86, 3-[5-(3-chlorophenyl)-4-isoxazolyl]propionic acid] |

| melting point [°C] | SMILES |
| --- | --- |
| 150 to 151 | O=C(O)CCc1cnoc1-c1ccc2c(c1)OCO2 [Example 89, 3-[5-(1,3-benzodioxol-5-yl)-4-isoxazolyl]propionic acid] |
| 158 to 159 | Cc1cc(-c2oncc2CCC(=O)O)ccc1Cl [Example 95, 3-[5-(4-chloro-3-methylphenyl)-4-isoxazolyl]propionic acid] |
| 50 to 51 | Cc1cc(-c2oncc2CCCO)ccc1Cl [Example 97, 3-[5-(4-chloro-3-methylphenyl)-4-isoxazolyl]propan-1-ol] |
| 103 to 104 | O=C(O)CCc1cnoc1-c1cc(Cl)ccc1Cl [Example 98, 3-[5-(2,5-dichlorophenyl)-4-isoxazolyl]propionic acid] |
| 169 to 170 | COc1ccc(-c2oncc2CCC(=O)O)cc1OC [Example 100, 3-[5-(3,4-dimethoxyphenyl)-4-isoxazolyl]propionic acid] |
| 124 to 125 | CSc1ccc(-c2oncc2CCC(=O)O)cc1 [Example 103, 3-[5-(4-methylthiophenyl)-4-isoxazolyl]propionic acid] |
| 54 to 55 | CSc1ccc(-c2oncc2CCCO)cc1 [Example 105, 3-[5-(4-methylthiophenyl)-4-isoxazolyl]propan-1-ol] |
| 125 to 126 | CS(=O)(=O)c1ccc(-c2oncc2CCCO)cc1 [Example 106, 3-[5-(4-methylsulfonylphenyl)-4-isoxazolyl]propan-1-ol] |
| 73 to 74 | C[S+]([O-])c1ccc(-c2oncc2CCCO)cc1 (stereo not drawn) [Example 107, 3-[5-(4-methylsulfinylphenyl)-4-isoxazolyl]propan-1-ol] |
| 139 to 140 | O=C(O)CCc1cnoc1-c1ccc(Cl)c(F)c1 [Example 108, 3-[5-(4-chloro-3-fluorophenyl)-4-isoxazolyl]propionic acid] |
| 181 to 182 | O=C(O)CCc1conc1-c1ccc(Cl)c(Cl)c1 [Example 111, 3-[3-(3,4-dichlorophenyl)-4-isoxazolyl]propionic acid] |
| 140 to 141 | O=C(O)CCc1conc1-c1ccc(F)c(Cl)c1 [Example 114, 3-[3-(3-chloro-4-fluorophenyl)-4-isoxazolyl]propionic acid] |
| 148 to 149 | O=C(O)CCc1conc1-c1ccc(Cl)c(F)c1 [Example 117, 3-[3-(4-chloro-3-fluorophenyl)-4-isoxazolyl]propionic acid] |
| 49 to 50 | COC(=O)CCc1cnoc1-c1cc(Cl)c(Cl)s1 [Example 124, methyl 3-[5-(4,5-dichloro-2-thienyl)-4-isoxazolyl]propionate] |
| 151 to 152 | O=C(O)CCc1conc1-c1ccc(F)c(Br)c1 [Example 125, 3-[3-(3-bromo-4-fluorophenyl)-4-isoxazolyl]propionic acid] |
| 136 to 137 | O=C(O)CCc1cnoc1-c1ccc(F)c(Br)c1 [Example 128, 3-[5-(3-bromo-4-fluorophenyl)-4-isoxazolyl]propionic acid] |
| 94 to 95 | O=C(O)CCc1cnoc1-c1ccc(-c2ccccc2)cc1 [Example 131, 3-[5-(4-phenylphenyl)-4-isoxazolyl]propionic acid] |
| 173 to 174 | Cc1noc(-c2ccccc2)c1/C=C/C(=O)O [Example 136, (E)-3-(3-methyl-5-phenyl-4-isoxazolyl)propenoic acid] |
| 173 to 174 | O=C(O)CCc1conc1-c1ccc(C(F)(F)F)cc1 [Example 140, 3-[3-(4-trifluoromethylphenyl)-4-isoxazolyl]propionic acid] |
| 187 to 188 | Cc1onc(-c2ccc(Cl)cc2)c1CCC(=O)O [Example 141, 3-[3-(4-chlorophenyl)-5-methyl-4-isoxazolyl]propionic acid] |
| 164 to 165 | CCc1onc(-c2ccc(Cl)cc2)c1CCC(=O)O [Example 142, 3-[3-(4-chlorophenyl)-5-ethyl-4-isoxazolyl]propionic acid] |
| 183 to 184 | O=C(O)CCc1c(-c2ccccc2)noc1O [Example 143, 3-[5-hydroxy-3-phenyl-4-isoxazolyl]propionic acid] |
| 138 to 139 | Cc1onc(-c2ccc(C(F)(F)F)cc2)c1CCC(=O)O [Example 144, 3-[5-methyl-3-(4-trifluoromethylphenyl)-4-isoxazolyl]propionic acid] |
| 63 to 64 | Cc1onc(-c2cccc(C(F)(F)F)c2)c1CCC(=O)O [Example 145, 3-[5-methyl-3-(3-trifluoromethylphenyl)-4-isoxazolyl]propionic acid] |
| 152 to 153 | O=C(O)CCc1c(-c2ccccc2)noc1-c1ccccc1 [Example 146, 3-[3,5-diphenyl-4-isoxazolyl]propionic acid] |
| 79 to 81 | Cc1onc(-c2ccccc2Cl)c1CCC(=O)O [Example 147, 3-[3-(2-chlorophenyl)-5-methyl-4-isoxazolyl]propionic acid] |
| 162 to 164 | O=C(CCc1cnoc1-c1ccccc1)Nc1ccc(CP(=O)(O)O)cc1 [Example 413 (byproduct), 3-(5-Phenyl-4-isoxazolyl)-N-[4-(phosphonomethyl)phenyl]propionamide] |
